The values that follow come from patent US20020150912A1, “Reporter system for cell surface receptor-ligand binding” (priority 2000, published 2002).

For assay [1], the system named is endogenous ATP receptors present in the HeLa cells. The assay can be described thus: HF1 reporter cell luciferase assay, endogenous ATP receptors. It is filed as cell-based. Particulars: stimulation for 16 hours, read-out: EC50, TRE-mediated luciferase response. How it is done: FIG. 5 illustrates the response of endogenous ATP receptors present in the HeLa cells used to establish a reporter cell line, HF1, of the invention.
A. Dose-response curve following stimulation with varying concentrations of ATP for 16 hours. […] Error bars indicate± SEM.
(§1) The medium was removed and cell lysis buffer added. Plates were stored at −70° C. until further analysis.

Assay [2] concerns HeLa cells. The assay can be described thus: Luciferase assay of HeLa cells transiently transfected with prototypic reporter plasmids. In kind it is cell-based. The following applies: Homo sapiens, 10 h, 100 nM PMA, or 100 nM PMA and 10^−6 M thapsigargin, read-out: Amplification value. How it is done:
(§2) Cells electroporated for transient expression were stimulated with 100 nM PMA for 10 hours. Amplification was calculated as the ratio between the relative luminescence units (RLU) of stimulated and non-stimulated cells. Results are expressed as mean values+SEM of three to four independent transfection experiments each performed in triplicate; n.d.=not determined.
as §1
(§3) The prototypic reporter plasmids (pcFUS2; pcFUS2-6xSTAT/NFκB; pcFUS3 and pGL3-12xSTAT/NFκB) were used to transfect HeLa cells transiently by electroporation. Cells were stimulated 24 h post transfection with 100 nM PMA or 100 nM PMA and 10^−6 M thapsigargin or treated as controls. After 10 h of incubation, the cells were lysed and assayed.

In assay [3] the test system is reporter plasmids in HeLa cells. The assay can be described thus: HeLa cells transiently transfected with reporter plasmids, luciferase amplification. The following applies: 100 nM PMA, 10^−6 M thapsigargin where added, 10 h, ratio of RLU, stimulated to non-stimulated cells. In kind it is cell-based. On the procedure: as §2, §1, §3
The target in assay [4] is T1, chemokine receptor, CCR5 (Homo sapiens, UniProt P51681). The assay can be described thus: HF1pCCR5 reporter cell luciferase assay. It is filed as cell-based. Particulars: CCR5 stably expressed in HF1 reporter cells; read-out: EC50 (agonist concentration giving half maximum effect). More on the design: All receptor ORFs were inserted into the pIRESpuro vector (Clontech) by standard techniques; expressed in transfected cells; host or cells: HeLa-derived HF1 reporter cells (HF1pCCR5), pIRESpuro vector.

Assay [5] deals with T1, chemokine receptor, CCR5. The assay can be described thus: cell-based or functional assay.
Setting [6] is: plasmid pcFUS3 (6 × STAT/NFκB; 9 × AP-1).

Like-named read-outs stand apart in the source and are kept apart here.

T1 sequence (P51681 whole entry): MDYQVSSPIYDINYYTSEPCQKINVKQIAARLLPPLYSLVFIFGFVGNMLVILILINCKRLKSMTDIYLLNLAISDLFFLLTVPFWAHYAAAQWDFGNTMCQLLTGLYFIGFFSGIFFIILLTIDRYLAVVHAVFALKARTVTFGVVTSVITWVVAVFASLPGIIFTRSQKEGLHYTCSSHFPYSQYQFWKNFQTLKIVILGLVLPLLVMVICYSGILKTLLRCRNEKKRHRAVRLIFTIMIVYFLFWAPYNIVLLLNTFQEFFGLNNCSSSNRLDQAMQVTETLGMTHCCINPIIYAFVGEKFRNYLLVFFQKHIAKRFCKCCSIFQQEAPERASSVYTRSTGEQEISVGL

Regarding `Nc1ncnc2c1ncn2[C@@H]1O[C@H](COP(=O)(O)OP(=O)(O)OP(=O)(O)O)[C@@H](O)[C@H]1O` [ATP], in assay [1], the EC50 worked out at 107000 nM.
With `CCCCCCCCCCCCCC(=O)O[C@@H]1[C@@H](C)[C@@]2(O)[C@@H](C=C(CO)C[C@]3(O)C(=O)C(C)=C[C@@H]23)[C@@H]2C(C)(C)[C@]12OC(C)=O` [PMA], the fold induction at 0.1 µM in assay [2] (plasmid pGL3-12 × STAT/NFκB) was 4.16 ± 2; in assay [2] (plasmid pcFUS2 (9 × AP-1)), 2.53 ± 2; in assay [2] (plasmid pcFUS2-6 × STAT/NFκB), 3.78 ± 1.44; in assay [2] (setting [6]), 7.37 ± 3.29. Besides, the Amplification value in assay [3] (plasmid pGL3-12 × STAT/NFκB) came out at 4.16 ± 2.00; in assay [3] (plasmid pcFUS2 (9 × AP-1)), 2.53 ± 2.00; in assay [3] (plasmid pcFUS2-6 × STAT/NFκB), 3.78 ± 1.44; in assay [3] (setting [6]), 7.37 ± 3.29.
As to “RANTES: a peptide (having the sequence RANTES), agonist of the chemokine receptor CCR5”, the EC50 in assay [4] is 111 nM.
“RANTES (from UniProt P13501 24-91) (ligand)” gave an EC50 (agonist concentration giving half maximum effect), luciferase reporter in HF1 cells stably expressing CCR5 in assay [5] of 111 nM.
